From the NIST ThermoML archive (doi:10.1016/j.jct.2014.10.001)
Several values for one entry are separate records, joined by “and”; a condition that tells them apart may be missing. Equal values may be shown once.

Assay: xn = mol fraction of the nth substance listed
Details: Gas, Buoyancy - hydrostatic balance with magnetic suspension - one sinker

FCC(F)(F)F [1,1,1,2-tetrafluoroethane] + CCC
Details | mass density
258.14 K, 113.78 kPa, x1 = 0.5401 | 4.1262 kg/m3
258.14 K, 154.11 kPa, x1 = 0.5401 | 5.651 kg/m3
258.15 K, 190.72 kPa, x1 = 0.5401 | 7.0674 kg/m3
258.15 K, 242.95 kPa, x1 = 0.5401 | 9.1445 kg/m3
258.16 K, 154.01 kPa, x1 = 0.7989 | 6.8087 kg/m3
258.16 K, 168.96 kPa, x1 = 0.2391 | 4.7661 kg/m3
258.17 K, 103.24 kPa, x1 = 0.2391 | 2.8628 kg/m3
258.17 K, 106.9 kPa, x1 = 0.7989 | 4.6538 kg/m3
258.18 K, 197.88 kPa, x1 = 0.7989 | 8.8817 kg/m3
258.19 K, 252.34 kPa, x1 = 0.2391 | 7.2822 kg/m3
263.13 K, 101.57 kPa, x1 = 0.5401 | 3.5945 kg/m3
263.13 K, 101.58 kPa, x1 = 0.5401 | 3.5946 kg/m3
263.14 K, 134.16 kPa, x1 = 0.6201 | 5.0876 kg/m3
263.14 K, 166.53 kPa, x1 = 0.5401 | 5.9917 kg/m3
263.14 K, 183.78 kPa, x1 = 0.7989 | 8.0203 kg/m3
263.14 K, 220.07 kPa, x1 = 0.5401 | 8.0347 kg/m3
263.14 K, 225.37 kPa, x1 = 0.7989 | 9.9705 kg/m3
263.14 K, 281.67 kPa, x1 = 0.5401 | 10.4652 kg/m3
263.15 K, 99.9 kPa, x1 = 0.7989 | 4.2498 kg/m3
263.15 K, 102.04 kPa, x1 = 0.2391 | 2.7715 kg/m3
263.15 K, 145.63 kPa, x1 = 0.7989 | 6.2807 kg/m3
263.15 K, 194.24 kPa, x1 = 0.6201 | 7.4918 kg/m3
263.15 K, 259.7 kPa, x1 = 0.6201 | 10.2107 kg/m3
263.16 K, 203.74 kPa, x1 = 0.2391 | 5.6732 kg/m3
263.17 K, 305.05 kPa, x1 = 0.2391 | 8.7279 kg/m3
268.12 K, 231.64 kPa, x1 = 0.7989 | 10.0266 kg/m3
268.13 K, 104.95 kPa, x1 = 0.7989 | 4.3792 kg/m3
268.13 K, 150.69 kPa, x1 = 0.7989 | 6.3684 kg/m3
268.13 K, 213.45 kPa, x1 = 0.6201 | 8.092 kg/m3
268.14 K, 104.92 kPa, x1 = 0.5401 | 3.6381 kg/m3
268.14 K, 125.37 kPa, x1 = 0.6201 | 4.6466 kg/m3
268.14 K, 190.18 kPa, x1 = 0.7989 | 8.1303 kg/m3
268.14 K, 285.39 kPa, x1 = 0.7989 | 12.5661 kg/m3
268.14 K, 300.29 kPa, x1 = 0.6201 | 11.6624 kg/m3
268.15 K, 183.8 kPa, x1 = 0.5401 | 6.4973 kg/m3
268.15 K, 268.92 kPa, x1 = 0.5401 | 9.7174 kg/m3
268.16 K, 198.02 kPa, x1 = 0.2391 | 5.3921 kg/m3
268.16 K, 341.03 kPa, x1 = 0.5401 | 12.5709 kg/m3
268.17 K, 119.34 kPa, x1 = 0.2391 | 3.1919 kg/m3
268.17 K, 286.65 kPa, x1 = 0.2391 | 7.9728 kg/m3
268.17 K, 365.93 kPa, x1 = 0.2391 | 10.3898 kg/m3
273.1 K, 170.36 kPa, x1 = 0.5401 | 5.8806 kg/m3
273.1 K, 283.04 kPa, x1 = 0.6201 | 10.6873 kg/m3
273.1 K, 358.16 kPa, x1 = 0.6201 | 13.8005 kg/m3
273.1 K, 411.8 kPa, x1 = 0.5401 | 15.1107 kg/m3
273.11 K, 105.09 kPa, x1 = 0.5401 | 3.5743 kg/m3
273.11 K, 121.2 kPa, x1 = 0.6201 | 4.3969 kg/m3
273.11 K, 251.59 kPa, x1 = 0.5401 | 8.853 kg/m3
273.11 K, 262.93 kPa, x1 = 0.7989 | 11.2212 kg/m3
273.11 K, 323.14 kPa, x1 = 0.5401 | 11.5758 kg/m3
273.12 K, 100.04 kPa, x1 = 0.7989 | 4.0831 kg/m3
273.12 K, 122.4 kPa, x1 = 0.2391 | 3.2081 kg/m3
273.12 K, 206.06 kPa, x1 = 0.6201 | 7.6287 kg/m3
273.12 K, 451.8 kPa, x1 = 0.2391 | 12.8024 kg/m3
273.13 K, 144.28 kPa, x1 = 0.7989 | 5.9572 kg/m3
273.13 K, 204.71 kPa, x1 = 0.2391 | 5.4646 kg/m3
273.13 K, 216.26 kPa, x1 = 0.7989 | 9.1063 kg/m3
273.13 K, 288.63 kPa, x1 = 0.2391 | 7.853 kg/m3
273.13 K, 319.28 kPa, x1 = 0.7989 | 13.8595 kg/m3
273.13 K, 364.79 kPa, x1 = 0.2391 | 10.1086 kg/m3
278.12 K, 123.52 kPa, x1 = 0.6201 | 4.396 kg/m3
278.13 K, 236.83 kPa, x1 = 0.6201 | 8.6438 kg/m3
278.14 K, 337.13 kPa, x1 = 0.6201 | 12.6083 kg/m3
278.14 K, 433.01 kPa, x1 = 0.6201 | 16.603 kg/m3
278.15 K, 103.41 kPa, x1 = 0.7989 | 4.1428 kg/m3
278.15 K, 194.41 kPa, x1 = 0.5401 | 6.606 kg/m3
278.15 K, 286.8 kPa, x1 = 0.7989 | 12.0403 kg/m3
278.15 K, 289.3 kPa, x1 = 0.5401 | 10.0435 kg/m3
278.15 K, 381.08 kPa, x1 = 0.7989 | 16.4363 kg/m3 and 16.4338 kg/m3
278.15 K, 419.02 kPa, x1 = 0.5401 | 15.0163 kg/m3
278.15 K, 504.76 kPa, x1 = 0.5401 | 18.5053 kg/m3
278.16 K, 115.44 kPa, x1 = 0.5401 | 3.8575 kg/m3
278.16 K, 152.51 kPa, x1 = 0.7989 | 6.1813 kg/m3
278.16 K, 230.77 kPa, x1 = 0.7989 | 9.5443 kg/m3
278.19 K, 442.42 kPa, x1 = 0.2391 | 12.1807 kg/m3
278.2 K, 102.16 kPa, x1 = 0.2391 | 2.6113 kg/m3
278.2 K, 233.61 kPa, x1 = 0.2391 | 6.1346 kg/m3
278.2 K, 514.55 kPa, x1 = 0.2391 | 14.4261 kg/m3
278.21 K, 366.56 kPa, x1 = 0.2391 | 9.9124 kg/m3
283.13 K, 211.19 kPa, x1 = 0.7822 | 8.4187 kg/m3
283.13 K, 329.43 kPa, x1 = 0.7822 | 13.5211 kg/m3
283.13 K, 459.52 kPa, x1 = 0.7822 | 19.5449 kg/m3
283.14 K, 311.18 kPa, x1 = 0.5401 | 10.6211 kg/m3
283.14 K, 501.49 kPa, x1 = 0.5401 | 17.8976 kg/m3
283.15 K, 101.13 kPa, x1 = 0.5401 | 3.3055 kg/m3
283.15 K, 102.6 kPa, x1 = 0.7822 | 3.9912 kg/m3
283.15 K, 120.94 kPa, x1 = 0.6201 | 4.2161 kg/m3
283.15 K, 198.01 kPa, x1 = 0.6201 | 7.0141 kg/m3
283.15 K, 210.93 kPa, x1 = 0.5401 | 7.0468 kg/m3
283.15 K, 416.97 kPa, x1 = 0.5401 | 14.5789 kg/m3
283.15 K, 602.24 kPa, x1 = 0.5401 | 22.0672 kg/m3
283.16 K, 415.7 kPa, x1 = 0.6201 | 15.476 kg/m3
283.16 K, 514.53 kPa, x1 = 0.6201 | 19.6465 kg/m3
283.17 K, 114.18 kPa, x1 = 0.2391 | 2.8713 kg/m3
283.17 K, 457.55 kPa, x1 = 0.2391 | 12.3388 kg/m3
283.17 K, 636.31 kPa, x1 = 0.2391 | 17.9209 kg/m3
283.18 K, 185.02 kPa, x1 = 0.2391 | 4.7134 kg/m3
283.18 K, 298.86 kPa, x1 = 0.2391 | 7.7872 kg/m3
283.18 K, 383.01 kPa, x1 = 0.2391 | 10.158 kg/m3
288.1 K, 100.89 kPa, x1 = 0.7822 | 3.85 kg/m3
288.12 K, 214.43 kPa, x1 = 0.7822 | 8.3795 kg/m3
288.12 K, 325.43 kPa, x1 = 0.7822 | 13.0428 kg/m3
288.12 K, 552.55 kPa, x1 = 0.7822 | 23.4956 kg/m3
288.12 K, 552.56 kPa, x1 = 0.7822 | 23.4963 kg/m3
288.12 K, 709.34 kPa, x1 = 0.5401 | 26.0161 kg/m3
288.13 K, 102.08 kPa, x1 = 0.5401 | 3.2763 kg/m3
288.13 K, 317.7 kPa, x1 = 0.5401 | 10.6307 kg/m3
288.13 K, 424.11 kPa, x1 = 0.5401 | 14.5146 kg/m3
288.13 K, 446.77 kPa, x1 = 0.6201 | 16.3715 kg/m3
288.13 K, 448.02 kPa, x1 = 0.7822 | 18.5148 kg/m3
288.13 K, 514.46 kPa, x1 = 0.5401 | 17.9692 kg/m3
288.13 K, 613.19 kPa, x1 = 0.5401 | 21.9339 kg/m3
288.14 K, 209.2 kPa, x1 = 0.5401 | 6.8504 kg/m3
288.14 K, 232.81 kPa, x1 = 0.6201 | 8.1461 kg/m3
288.14 K, 332.05 kPa, x1 = 0.6201 | 11.8593 kg/m3
288.15 K, 122.39 kPa, x1 = 0.6201 | 4.191 kg/m3
288.15 K, 553.06 kPa, x1 = 0.6201 | 20.7897 kg/m3
288.43 K, 753.42 kPa, x1 = 0.2391 | 21.238 kg/m3
288.45 K, 459.95 kPa, x1 = 0.2391 | 12.1079 kg/m3
288.45 K, 680.21 kPa, x1 = 0.2391 | 18.823 kg/m3
288.46 K, 121.21 kPa, x1 = 0.2391 | 2.9907 kg/m3
288.46 K, 302.44 kPa, x1 = 0.2391 | 7.7138 kg/m3
288.46 K, 384.07 kPa, x1 = 0.2391 | 9.9536 kg/m3
288.46 K, 571.46 kPa, x1 = 0.2391 | 15.4131 kg/m3
288.47 K, 209.6 kPa, x1 = 0.2391 | 5.253 kg/m3
293.14 K, 105.81 kPa, x1 = 0.7822 | 3.9639 kg/m3
293.15 K, 425.23 kPa, x1 = 0.7822 | 17.0517 kg/m3
293.15 K, 454.02 kPa, x1 = 0.5401 | 15.2811 kg/m3
293.15 K, 540.93 kPa, x1 = 0.7822 | 22.3179 kg/m3
293.15 K, 558.53 kPa, x1 = 0.5401 | 19.2207 kg/m3
293.15 K, 637.77 kPa, x1 = 0.7822 | 27.0005 kg/m3
293.15 K, 758.84 kPa, x1 = 0.5401 | 27.3827 kg/m3
293.15 K, 856.96 kPa, x1 = 0.5401 | 31.7378 kg/m3
293.16 K, 103.22 kPa, x1 = 0.5401 | 3.2534 kg/m3
293.16 K, 213.45 kPa, x1 = 0.7822 | 8.1673 kg/m3
293.16 K, 216.96 kPa, x1 = 0.5401 | 6.9744 kg/m3
293.16 K, 311.55 kPa, x1 = 0.7822 | 12.1753 kg/m3
293.16 K, 328.59 kPa, x1 = 0.5401 | 10.787 kg/m3
293.16 K, 662.93 kPa, x1 = 0.5401 | 23.3629 kg/m3
293.17 K, 427.29 kPa, x1 = 0.6201 | 15.2346 kg/m3
293.17 K, 611.78 kPa, x1 = 0.6201 | 22.7331 kg/m3
293.18 K, 124.6 kPa, x1 = 0.6201 | 4.1917 kg/m3
293.18 K, 229.76 kPa, x1 = 0.6201 | 7.8762 kg/m3
293.18 K, 328.76 kPa, x1 = 0.6201 | 11.4874 kg/m3
293.18 K, 525.37 kPa, x1 = 0.6201 | 19.1338 kg/m3
293.19 K, 728.09 kPa, x1 = 0.6201 | 27.8461 kg/m3
